Results on five compounds are retold here after ChEMBL document CHEMBL1201862, “PubChem BioAssay data set” (2004).

The target of assay [1] is T1, Sentrin-specific protease 8 (Homo sapiens, UniProt Q96LD8).
T1 sequence (Q96LD8 whole entry): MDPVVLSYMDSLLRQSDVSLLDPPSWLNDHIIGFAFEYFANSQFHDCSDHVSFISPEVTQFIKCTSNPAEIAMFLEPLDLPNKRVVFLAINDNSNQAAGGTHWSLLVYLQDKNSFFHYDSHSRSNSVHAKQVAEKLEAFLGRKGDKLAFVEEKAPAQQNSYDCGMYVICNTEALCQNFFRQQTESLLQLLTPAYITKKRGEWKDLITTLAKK
The class given is functional.

Assay [2] concerns the target T1, Sentrin-specific protease 8. The class given is functional. This is another data set of the same source.
Assay [3] in a line: Jurkat T cell cytotoxicity, dose response, cytotoxicity control for P. falciparum gametocyte viability project, luminescence (AID 1117277).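 Note: potency reflects loss of cellular ATP meaning fewer viable cells.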 The class given is functional, cell-based.
In assay [4] the target is T2, Small ubiquitin-related modifier 1 (Homo sapiens, UniProt P63165). Nature of the assay: inhibitors of SUMO1 partner interactions, dose response, biochemical, FRET (AID 624383). The class given is functional. As to conditions: read-out: IC50_Mean.
T2 sequence (P63165 whole entry): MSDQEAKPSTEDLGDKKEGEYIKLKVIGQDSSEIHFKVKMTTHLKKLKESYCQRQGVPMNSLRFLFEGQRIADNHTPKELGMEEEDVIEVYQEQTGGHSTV
The target of assay [5] is T2, Small ubiquitin-related modifier 1. Nature of the assay: inhibitors of SUMO1 peptide binding, dose response, biochemical, fluorescence polarization, uHTS hits (AID 624382). The class given is functional. As to conditions: read-out: IC50_Mean.
Assay [6] in a line: P. falciparum late gametocyte killing, dose response, luminescence (AID 1117278).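 Note: gametocytes exposed to compound for 24 hours.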 The class given is functional, cell-based.
The target of a further assay is Steroidogenic factor 1 (Homo sapiens, UniProt Q13285). Nature of the assay: Counterscreen for inverse agonists of the liver receptor homolog-1 (LRH-1; NR5A2): Luminescence-based cell-based high throughput dose response assay to identify inverse agonists of the Steroidogenic Factor 1 Nuclear Receptor (SF1; NR5A1). The class given is functional.
Steroidogenic factor 1, sequence (Q13285 whole entry): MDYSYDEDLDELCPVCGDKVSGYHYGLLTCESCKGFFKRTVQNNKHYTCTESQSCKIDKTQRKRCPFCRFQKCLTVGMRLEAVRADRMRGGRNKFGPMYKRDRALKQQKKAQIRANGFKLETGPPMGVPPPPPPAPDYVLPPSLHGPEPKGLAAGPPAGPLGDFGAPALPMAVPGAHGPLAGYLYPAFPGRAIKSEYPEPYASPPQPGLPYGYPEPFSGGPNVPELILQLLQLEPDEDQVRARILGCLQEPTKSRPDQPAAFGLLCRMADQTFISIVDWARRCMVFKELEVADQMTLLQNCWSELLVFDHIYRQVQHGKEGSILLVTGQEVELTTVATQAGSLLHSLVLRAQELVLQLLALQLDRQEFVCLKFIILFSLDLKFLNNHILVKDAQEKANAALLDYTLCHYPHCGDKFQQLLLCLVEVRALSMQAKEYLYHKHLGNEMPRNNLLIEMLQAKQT
Assay [7] has as its target Nuclear receptor subfamily 5 group A member 2 (Homo sapiens, UniProt O00482). It counts as functional, cell-based.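 Note: HEK293T cells transfected with LRH-1 and a StAR promoter luciferase reporter; potency for inhibitors that lower LRH-1 driven reporter light.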
The nature of assay [8]: StAR promoter reporter inhibition counter-screen, dose response, counter-screen for LRH-1 inverse agonist project, cell-based, luminescence, luciferase reporter (AID 651969). The class given is functional.
Assay [9] addresses T3, Beta-lactamase (Pseudomonas aeruginosa, UniProt Q79MP6). Nature of the assay: IMP-1 metallo-beta-lactamase inhibitors, dose response, selectivity assay for VIM-2 inhibitor project, biochemical, epi-absorbance (AID 1920).
The target in assay [10] is T4, Beta Lactamase (Pseudomonas aeruginosa, UniProt Q932Y6). Nature of the assay: VIM-2 metallo-beta-lactamase inhibition constant, late-stage follow-up, mechanism study, biochemical, probe results, panel member Nitrocefin-based IMP1 Inhibition Counterscreen (AID 2128).
T4 sequence (Q932Y6 whole entry): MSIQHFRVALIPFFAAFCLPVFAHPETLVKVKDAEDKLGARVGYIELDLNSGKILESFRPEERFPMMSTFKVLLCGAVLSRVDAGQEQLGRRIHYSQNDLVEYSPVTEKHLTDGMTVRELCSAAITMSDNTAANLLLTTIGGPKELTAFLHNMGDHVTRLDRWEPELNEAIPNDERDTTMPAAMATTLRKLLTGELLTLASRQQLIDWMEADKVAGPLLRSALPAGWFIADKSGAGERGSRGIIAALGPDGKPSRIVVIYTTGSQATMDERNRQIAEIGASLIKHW
Assay [11] deals with T5, Beta-lactamase (Salmonella choleraesuis (strain SC-B67), UniProt Q5J463). Nature of the assay: Epi-absorbance-based counterscreen for selective VIM-2 inhibitors: dose response biochemical high throughput screening assay to identify inhibitors of TEM-1 serine-beta-lactamase.
T5 sequence (Q5J463 whole entry): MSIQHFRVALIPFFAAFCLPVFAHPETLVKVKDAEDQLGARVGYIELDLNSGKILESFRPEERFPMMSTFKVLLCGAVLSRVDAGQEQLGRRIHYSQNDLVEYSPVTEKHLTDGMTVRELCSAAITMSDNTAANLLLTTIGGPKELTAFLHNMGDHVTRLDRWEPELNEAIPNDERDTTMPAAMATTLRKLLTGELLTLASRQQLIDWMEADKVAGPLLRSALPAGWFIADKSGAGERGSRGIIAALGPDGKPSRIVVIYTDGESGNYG
Assay [12] deals with T3, Beta-lactamase. In words: […] counterscreen for selective VIM-2 inhibitors: dose response biochemical high throughput screening assay to identify inhibitors of IMP-1 metallo-beta-lactamase.
Assay [13] deals with T5, Beta-lactamase. Nature of the assay: Late stage results from the probe development efforts to identify selective inhibitors of VIM-2 metallo-beta-lactamase: probe results. Panel member name: Nitrocefin-based TEM-1 Inhibition Counterscreen.
Assay [14] concerns the target T4, Beta Lactamase. In words: VIM-2 metallo-beta-lactamase inhibition constant, late-stage follow-up, mechanism study, biochemical, probe results, panel member Nitrocefin-based VIM2 Inhibition Assay (AID 2128).
Assay [15] in a line: control 3'UTR Renilla luciferase suppression, dose response, counter-screen for Shn3 inhibitor project, cell-based, Clone20-Shn3RL, cherry-picked (AID 624133). It counts as functional.
A short description of assay [16]: Fluorescence-based cell-based high throughput dose response assay for inhibitors of the interaction of nucleotide-binding oligomerization domain containing 2 (NOD2) and the receptor-interacting serine-threonine kinase 2 (RIPK2). As to conditions: Homo sapiens. It counts as functional.
The next assay concerns HEK293. Nature of the assay: inhibitors of LMP1-driven NF-kB reporter, dose response, cell-based, HEK293, luciferase, cherry-pick (AID 588343). It counts as functional. As to conditions: Homo sapiens.
Assay [17] concerns the target T6, Latent membrane protein 1 (Human herpesvirus 4 (strain B95-8), UniProt P03230).
T6 sequence (P03230 whole entry): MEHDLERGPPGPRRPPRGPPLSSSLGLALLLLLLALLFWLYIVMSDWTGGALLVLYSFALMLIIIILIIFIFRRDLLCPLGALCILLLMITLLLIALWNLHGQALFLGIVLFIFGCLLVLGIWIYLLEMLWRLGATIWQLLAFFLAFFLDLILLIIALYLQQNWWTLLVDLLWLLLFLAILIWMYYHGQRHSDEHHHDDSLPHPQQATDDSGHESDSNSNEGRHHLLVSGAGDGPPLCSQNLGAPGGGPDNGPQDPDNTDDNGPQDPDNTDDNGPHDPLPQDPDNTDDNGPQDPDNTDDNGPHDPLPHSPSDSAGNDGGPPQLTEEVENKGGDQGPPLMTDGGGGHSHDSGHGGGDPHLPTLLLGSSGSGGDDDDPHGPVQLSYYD
In words: TES1-eGFP NF-kB reporter inhibition versus Tet-On dsRED, dose response, selectivity assay for LMP1 NF-kB inhibitor project, imaging, HEK293T, dual-color eGFP/dsRED, cherry-picks (AID 588398). It counts as functional, cell-based.

Assay [18] in a line: Shn3 3'UTR reporter inhibitors, dose response, cell-based, Clone20 osteoblasts, firefly luciferase, cherry-picked (AID 624132).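 Note: firefly luciferase luminescence from reporter carrying the Shn3 3'UTR in osteoblasts.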 The class given is functional.
Assay [19] is described as follows: HepG2 cell cytotoxicity, dose response, cytotoxicity control for Shn3 inhibitor project, CellTiter-Glo, cherry-picked (AID 624134). It counts as functional, cell-based.

Activity calls are given as the source filed them. Some results are limits rather than exact numbers.

T3 sequence (Q79MP6 whole entry): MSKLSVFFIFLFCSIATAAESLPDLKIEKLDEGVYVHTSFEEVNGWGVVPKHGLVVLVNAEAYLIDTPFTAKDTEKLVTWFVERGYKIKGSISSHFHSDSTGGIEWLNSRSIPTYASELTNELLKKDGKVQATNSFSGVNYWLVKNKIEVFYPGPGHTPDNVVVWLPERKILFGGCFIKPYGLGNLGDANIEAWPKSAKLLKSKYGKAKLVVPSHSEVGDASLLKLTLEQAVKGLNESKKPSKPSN
Nuclear receptor subfamily 5 group A member 2, sequence (O00482 whole entry): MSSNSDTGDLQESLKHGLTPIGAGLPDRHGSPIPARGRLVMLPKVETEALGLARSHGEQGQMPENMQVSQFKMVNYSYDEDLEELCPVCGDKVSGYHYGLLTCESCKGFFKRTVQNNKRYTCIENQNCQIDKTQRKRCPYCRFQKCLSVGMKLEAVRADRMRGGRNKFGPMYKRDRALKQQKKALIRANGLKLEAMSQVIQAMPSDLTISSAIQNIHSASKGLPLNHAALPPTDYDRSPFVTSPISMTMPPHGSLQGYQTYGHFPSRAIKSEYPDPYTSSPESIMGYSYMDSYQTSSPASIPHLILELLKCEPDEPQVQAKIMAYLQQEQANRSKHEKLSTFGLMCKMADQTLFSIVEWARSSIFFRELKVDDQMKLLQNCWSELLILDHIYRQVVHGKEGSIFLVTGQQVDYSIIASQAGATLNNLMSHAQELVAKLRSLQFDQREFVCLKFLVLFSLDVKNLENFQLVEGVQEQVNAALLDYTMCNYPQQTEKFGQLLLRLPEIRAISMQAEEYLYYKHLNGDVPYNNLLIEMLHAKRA

As to `O=C(CCS(=O)(=O)Cc1ccccc1F)N1CCc2ccccc2C1`, the IC50 is > 100 µM (inactive) in [1] and 7.69 µM (active) in assay [2].
`Cc1ccc(N2C(=S)SC3CS(=O)(=O)CC32)cc1` (stereo unspecified): the IC50 in [3] is > 83.2 µM (inactive); in assay [4], 100 µM (inactive); in assay [5] it was > 66.6 µM (inactive); in assay [6] it was > 109 µM (inactive).
With `O=C(COC(=O)CCN1C(=O)C2CC=CCC2C1=O)NCCc1ccc(F)cc1` (stereo unspecified), the IC50 at Steroidogenic factor 1 was 2.33 µM (active); in assay [7], 19.1 µM (inactive); in assay [8] it was 35.9 µM (inactive).
`O=c1[nH]c2c(s1)C(c1cccnc1)C1C3CCC(C3)C1S2` (stereo unspecified): the IC50 is > 59.6 µM (inactive) at Beta-lactamase [9]; > 60 µM (inactive) at Beta Lactamase [10]; > 59.6 µM (inactive) at Beta-lactamase [11]; > 59.6 µM (inactive) at Beta-lactamase [12]; > 60 µM (active) on Beta-lactamase [13]; 0.223 µM (active) on Beta Lactamase [14].
As for `O=C1C(=C(c2ccccc2)N2CCOCC2)Cc2ccccc21`, the AC50 was 5.97 µM (active) in assay [15]; 4.87 µM (active) in the assay on HEK293; 2.98 µM (active) in assay [17]; 0.999 µM (active) in [18]; 38.4 µM (active) in assay [19]. Further, the IC50 in [16] was 1.34 µM (active).
